Data from ChEMBL document CHEMBL3885881, “DrugMatrix”.

Species: Rattus norvegicus
Test: DrugMatrix - Regimen: Daily Repeat
Type: toxicity, organism-based, Sprague-Dawley
Set-up: regimen Daily Repeat, gender Male, age 6-8 weeks
Details: in vivo, po, route oral GAVAGE, vehicle .5 % CMC; for ABSOLUTE BASOPHIL / ABSOLUTE EOSINOPHIL / ABSOLUTE LYMPHOCYTE / ABSOLUTE MONOCYTE / ABSOLUTE SEGMENTED NEUTROPHIL / BASOPHIL / EOSINOPHIL / ERYTHROCYTE COUNT / HEMATOCRIT / HEMOGLOBIN / LEUKOCYTE COUNT / LYMPHOCYTE / MEAN CORPUSCULAR HEMOGLOBIN / MEAN CORPUSCULAR HEMOGLOBIN CONCENTRATION / MEAN CORPUSCULAR VOLUME / MONOCYTE / NEUTROPHIL / NUCLEATED RED BLOOD CELLS / PLATELET COUNT: tissue Blood; for ALANINE AMINOTRANSFERASE / ALBUMIN / ALKALINE PHOSPHATASE / ASPARTATE AMINOTRANSFERASE / BLOOD UREA NITROGEN / CARBON DIOXIDE / CHLORIDE / CHOLESTEROL / CREATINE PHOSPHOKINASE / CREATININE / GLUCOSE / LACTATE DEHYDROGENASE / LIPASE / PHOSPHORUS / POTASSIUM / SODIUM / TOTAL BILIRUBIN / TOTAL PROTEIN / URIC ACID: tissue Plasma
[1] = 0 mg/kg, 72 h, dose level Control, time 3 day
[2] = 0 mg/kg, 120 h, dose level Control, time 5 day
[3] = 88 mg/kg, 72 h, dose level Low, time 3 day

CC(C)[C@H](N)C(=O)OCCOCn1cnc2c(=O)[nH]c(N)nc21 [VALACYCLOVIR]
ABSOLUTE BASOPHIL [1]: 0 CELLS/uL
ABSOLUTE EOSINOPHIL [1]: 171.33 CELLS/uL
ABSOLUTE LYMPHOCYTE [1]: 13776.5 CELLS/uL
ABSOLUTE MONOCYTE [1]: 180.83 CELLS/uL
ABSOLUTE SEGMENTED NEUTROPHIL [1]: 1121.33 CELLS/uL
BASOPHIL [1]: 0%
EOSINOPHIL [1]: 1%
ERYTHROCYTE COUNT [1]: 5.56 x10E6/uL
HEMATOCRIT [1]: 34.75%
HEMOGLOBIN [1]: 13.68 G/DL
LEUKOCYTE COUNT [1]: 15.25 x10E3/uL
LYMPHOCYTE [1]: 90.17%
MEAN CORPUSCULAR HEMOGLOBIN [1]: 24.6 pg
MEAN CORPUSCULAR HEMOGLOBIN CONCENTRATION [1]: 39.4 G/DL
MEAN CORPUSCULAR VOLUME [1]: 62.48 fL
MONOCYTE [1]: 1.17%
NEUTROPHIL [1]: 7.67%
NUCLEATED RED BLOOD CELLS [1]: 0 /100WBC
PLATELET COUNT [1]: 1342 x10E3/uL
ALANINE AMINOTRANSFERASE [1]: 49.67 u/L
ALBUMIN [1]: 4.15 G/DL
ALKALINE PHOSPHATASE [1]: 346.83 u/L
ASPARTATE AMINOTRANSFERASE [1]: 108.17 u/L
BLOOD UREA NITROGEN [1]: 17.33 mg/dL
CARBON DIOXIDE [1]: 25 mmol/L
CHLORIDE [1]: 100.83 MEQ/L
CHOLESTEROL [1]: 66.83 mg/dL
CREATINE PHOSPHOKINASE [1]: 788 u/L
CREATININE [1]: 0.18 mg/dL
GLUCOSE [1]: 151.67 mg/dL
LACTATE DEHYDROGENASE [1]: 982.5 u/L
LIPASE [1]: 10.33 u/L
PHOSPHORUS [1]: 11.23 mg/dL
POTASSIUM [1]: 6.37 MEQ/L
SODIUM [1]: 141.02 MEQ/L
TOTAL BILIRUBIN [1]: 0.18 mg/dL
TOTAL PROTEIN [1]: 5.9 G/DL
URIC ACID [1]: 1.8 mg/dL
ABSOLUTE BASOPHIL [2]: 0 CELLS/uL
ABSOLUTE EOSINOPHIL [2]: 69 CELLS/uL
ABSOLUTE LYMPHOCYTE [2]: 13632.83 CELLS/uL
ABSOLUTE MONOCYTE [2]: 139.83 CELLS/uL
ABSOLUTE SEGMENTED NEUTROPHIL [2]: 1225 CELLS/uL
BASOPHIL [2]: 0%
EOSINOPHIL [2]: 0.33%
ERYTHROCYTE COUNT [2]: 5.52 x10E6/uL
HEMATOCRIT [2]: 33.98%
HEMOGLOBIN [2]: 13.22 G/DL
LEUKOCYTE COUNT [2]: 15.07 x10E3/uL
LYMPHOCYTE [2]: 90.83%
MEAN CORPUSCULAR HEMOGLOBIN [2]: 23.95 pg
MEAN CORPUSCULAR HEMOGLOBIN CONCENTRATION [2]: 38.9 G/DL
MEAN CORPUSCULAR VOLUME [2]: 61.53 fL
MONOCYTE [2]: 0.83%
NEUTROPHIL [2]: 8%
NUCLEATED RED BLOOD CELLS [2]: 0 /100WBC
PLATELET COUNT [2]: 1196 x10E3/uL
ALANINE AMINOTRANSFERASE [2]: 49.17 u/L
ALBUMIN [2]: 4.2 G/DL
ALKALINE PHOSPHATASE [2]: 352.33 u/L
ASPARTATE AMINOTRANSFERASE [2]: 89.67 u/L
BLOOD UREA NITROGEN [2]: 18 mg/dL
CARBON DIOXIDE [2]: 27.67 mmol/L
CHLORIDE [2]: 101 MEQ/L
CHOLESTEROL [2]: 72.83 mg/dL
CREATINE PHOSPHOKINASE [2]: 417.5 u/L
CREATININE [2]: 0.18 mg/dL
GLUCOSE [2]: 150.5 mg/dL
LACTATE DEHYDROGENASE [2]: 517.33 u/L
LIPASE [2]: 9 u/L
PHOSPHORUS [2]: 11.87 mg/dL
POTASSIUM [2]: 6.57 MEQ/L
SODIUM [2]: 143.62 MEQ/L
TOTAL BILIRUBIN [2]: 0.2 mg/dL
TOTAL PROTEIN [2]: 6.08 G/DL
URIC ACID [2]: 1.45 mg/dL
ABSOLUTE BASOPHIL [3]: 0 CELLS/uL
ABSOLUTE EOSINOPHIL [3]: 194 CELLS/uL
ABSOLUTE LYMPHOCYTE [3]: 11636 CELLS/uL
ABSOLUTE MONOCYTE [3]: 141 CELLS/uL
ABSOLUTE SEGMENTED NEUTROPHIL [3]: 1129 CELLS/uL
BASOPHIL [3]: 0%
EOSINOPHIL [3]: 1.33%
ERYTHROCYTE COUNT [3]: 5.5 x10E6/uL
HEMATOCRIT [3]: 34.9%
HEMOGLOBIN [3]: 13.63 G/DL
LEUKOCYTE COUNT [3]: 13.1 x10E3/uL
LYMPHOCYTE [3]: 89.33%
MEAN CORPUSCULAR HEMOGLOBIN [3]: 24.77 pg
MEAN CORPUSCULAR HEMOGLOBIN CONCENTRATION [3]: 39.07 G/DL
MEAN CORPUSCULAR VOLUME [3]: 63.5 fL
MONOCYTE [3]: 1%
NEUTROPHIL [3]: 8.33%
NUCLEATED RED BLOOD CELLS [3]: 0 /100WBC
PLATELET COUNT [3]: 1139.67 x10E3/uL
